What all share (type): binding, mouse
Assay [1] relates to monoclonal antibody Sol-8. In words: competitive inhibition ELISA (c-ELISA), monoclonal antibody Sol-8. To be noted: Sol-8 (IgG2a); ± one standard deviation. Here is the method:
(§1) Five, 6 month old BALB/c mice were injected with 50 μl of the solanidine-KLH conjugate mixed 1:1 with Ribi adjuvant (Ribi Immunochem Research Inc., Hamilton, Mont.). The mice received half the dose intraperitoneally and half intramuscularly every other week for a total of three injections. One month later, and 4 days prior to fusion, a selected mouse was given an intraperitoneal injection of 50 μl of solanidine-KLHconjugate in sterile saline. The spleen was removed and the splenocytes fused with SP2/O myeloma cells as described by Stanker et al. (1986, J. Immunol., 136:4174-4180), the contents of which are incorporated by reference herein. The fused cells were plated over 30 96-well microculture plates previously coated with mouse peritoneal exudate cells (macrophage) and grown under conditions described by Elissalde et al. (1993, J. Agric. Food Chem., 41:2167-2171), the contents of which are also incorporated by reference herein.
(§2) db-ELISA. A modification of a direct-binding ELISA described by Stanker et al. (1993, J. Agric. Food Chem., 41:1332-1336), the contents of which are incorporated by reference herein, was used to screen the culture fluids from the growing hybridomas for antibodies to solanidine. Microtiter plates (Nunc Maxisorb, Roskilde, Denmark; or Costar high binding plates, Costar Corp., Wilmington, Mass.) were coated with SOL-BSA by addition of 100 μl/well of a 1 μg/ml solution of SOL-BSA in distilled water. The SOL-BSA was incubated in uncovered plates at 37° C. for 18 hr to evaporate the liquid and allow the SOL-BSA to coat the bottom of the microtiter wells. The "coated" plates were then stored in sealed plastic bags at 4° C. and used within 2 weeks. Nonreacted sites on the plates were blocked by adding 400 μl of a 3% solution of nonfat dry milk (NFDM) in assay buffer (0.1M Tris, 0.15M NaCl, 10 mg/ml nonfat dry milk, 0.001% Tween 20, 0.02% sodium azide) and incubating the plates at room temperature for 1 hr. The blocking solution was then discarded and 100 μl of the hybridoma supernatant(s) or anti-solanidine Mab (from ascites fluid) was added, and the plates incubated for 1 hr at 37° C. After incubation, the plates were washed with a solution of 0.05% TWEEN-20 in water, and peroxidase conjugated goat anti-mouse antiserum (Sigma Inc., St. Louis, Mo.), diluted 1:500 in assay buffer, was then added to each well. Following a second 1 hr incubation at 37° C., the plates were washed as described above. Finally, the substrate, 2,2'-azino-bis(ethylbenzthiazole-6-sulfonic acid) (ABTS), was added. Absorbance was measured at 405 nm and the resulting data analyzed by computer using an Excel (Microsoft, Redmond, Wash.) spreadsheet program.
(§3) c-ELISA. The competitive inhibition ELISA for solanidine and other glycoalkaloids was carried out as previously described for other compounds by Stanker et al. (1993, ibid). Briefly, to each well of an antigen (glycoalkaloid or aglycone) coated, non-fat-milk-blocked, microtiter plate prepared as described in the db-ELISA was added 100 μl of assay buffer. Competitors (free solanidine and other glycoalkaloids and aglycones, and four structurally related steroids cholesterol, digitonin, βsitosterol, and stigmasterol, shown in Table 1) dissolved in 100 μl of assay buffer were added to the microassay plate and serially diluted (a 2-fold series). Next, 100 μl of assay buffer containing a predetermined amount of anti-solanidine monoclonal antibody prepared above was added to each well. The amount of anti-alkaloid antibody added was the concentration (dilution from tissue culture supernatant) resulting in approximately 50% of maximum binding or signal in a direct-binding ELISA where no competitor was present. The plates were sealed with plastic wrap, incubated for 1 hr at 37° C., and then processed as described in the db-ELISA to detect bound antibody. […]
(In general: ELISA stands for enzyme-linked immunosorbent assay.)

Assay [2] concerns monoclonal antibody Sol-48. The experiment in a line: competitive inhibition ELISA (c-ELISA), monoclonal antibody Sol-48. To be noted: Sol-48 (IgG2a); ± one standard deviation. Here is the method:
as §1, §2, §3

Assay [3] concerns monoclonal antibody Sol-54. In words: competitive inhibition ELISA (c-ELISA), monoclonal antibody Sol-54. To be noted: Sol-54 (IgG2a); ± one standard deviation. On the procedure: as §1, §2, §3
The test system of assay [4] is monoclonal antibody Sol-55. In words: competitive inhibition ELISA (c-ELISA), monoclonal antibody Sol-55. To be noted: Sol-55 (IgG2a); ± one standard deviation. On the procedure: as §1, §2, §3
In assay [5] the test system is monoclonal antibody Sol-59. In words: competitive inhibition ELISA (c-ELISA), monoclonal antibody Sol-59. To be noted: Sol-59 (IgG2a); ± one standard deviation. Here is the method:
as §1, §2, §3

In assay [6] the test system is monoclonal antibody Sol-67. In words: competitive inhibition ELISA (c-ELISA), monoclonal antibody Sol-67. To be noted: Sol-67 (IgG1); ± one standard deviation. On the procedure:
as §1, §2, §3

Assay [7] has as its system monoclonal antibody Sol-68. The experiment in a line: competitive inhibition ELISA (c-ELISA), monoclonal antibody Sol-68. To be noted: Sol-68 (IgG1); ± one standard deviation. On the procedure: as §1, §2, §3
The subject of assay [8] is monoclonal antibody Sol-71. In words: competitive inhibition ELISA (c-ELISA), monoclonal antibody Sol-71. To be noted: Sol-71 (IgG2a); ± one standard deviation. Here is the method: as §1, §2, §3
For assay [9], the system named is monoclonal antibody Sol-91. In words: competitive inhibition ELISA (c-ELISA), monoclonal antibody Sol-91. To be noted: Sol-91 (IgG2a); ± one standard deviation. On the procedure:
as §1, §2, §3

Assay [10] concerns monoclonal antibody Sol-106. In words: competitive inhibition ELISA (c-ELISA), monoclonal antibody Sol-106. To be noted: Sol-106 (IgG2a); ± one standard deviation. On the procedure: as §1, §2, §3
Assay [11] relates to monoclonal antibody Sol-129. In words: competitive inhibition ELISA (c-ELISA), monoclonal antibody Sol-129. To be noted: for IC50: Sol-129 (IgG1), ± one standard deviation; for relative affinity of Sol-129 / binding by Sol-129: in words. Here is the method: as §1, §2, §3

“Also recorded” adds a separate entry of the source.

Regarding `C[C@H]1CC[C@@H]2[C@@H](C)[C@H]3[C@H](C[C@H]4[C@@H]5CC=C6C[C@@H](O)CC[C@]6(C)[C@H]5CC[C@]34C)N2C1` [solanidine], the IC50 turned out to be 46 ± 6.4 ppb in assay [1]; 18 ± 4.4 ppb in assay [2]; 131 ± 53 ppb in assay [3]; 60 ± 19 ppb in assay [4]; 16 ± 1.7 ppb in assay [5]; 15.6 ppb in assay [6]. Further, the IC50 in assay [7] was 489 ppb; in assay [8], 1020 ppb; in assay [9], 36 ± 5.7 ppb; in assay [10], 14 ppb; in assay [11], 2.5 ± 0.35 ppb. Also, the “relative affinity of Sol-129” value in assay [11] is reported as “high affinity; also recorded: lowest relative affinity”.
For `C[C@@H]1CC[C@@]2(NC1)O[C@H]1C[C@H]3[C@@H]4CC=C5C[C@@H](O)CC[C@]5(C)[C@H]4CC[C@]3(C)[C@H]1[C@@H]2C` [solasodine], in assay [11], the “binding by Sol-129” value is reported as “binds”.
Turning to `C[C@@H]1CC[C@@]2(NC1)O[C@H]1C[C@H]3[C@@H]4CC=C5C[C@@H](O[C@@H]6O[C@H](CO)[C@H](O)[C@H](O[C@@H]7O[C@H](CO)[C@@H](O)[C@H](O)[C@H]7O)[C@H]6O[C@@H]6O[C@@H](C)[C@H](O)[C@@H](O)[C@H]6O)CC[C@]5(C)[C@H]4CC[C@]3(C)[C@H]1[C@@H]2C` [solasonine], the IC50 entry in assay [1], in [2], in assay [3], in [4], in [5] and in [6] was “nc (no competition at 10,000 ppb)” each time. The IC50 result was “nc (no competition at 10,000 ppb)” in assay [7]; “nc (no competition at 10,000 ppb)” in assay [8]; “nc (no competition at 10,000 ppb)” in assay [9]; “nc (no competition at 10,000 ppb)” in assay [10]; 36 ± 3.2 ppb in [11]. The “binding by Sol-129” value in assay [11] is listed as “Sol-129 was the only antibody capable of binding”. The “relative affinity of Sol-129” value in assay [11] is reported as “high affinity”.
Consider `C[C@H]1CC[C@]2(NC1)O[C@H]1C[C@H]3[C@@H]4CC[C@H]5C[C@@H](O)CC[C@]5(C)[C@H]4CC[C@]3(C)[C@H]1[C@@H]2C` [tomatidine], for which the IC50 result in assay [1], in assay [2], in assay [3], in assay [4], in [5] and in assay [6] was “nc (no competition at 10,000 ppb)” in each case. The IC50 entry in assay [7] is listed as “nc (no competition at 10,000 ppb)”; in assay [8] it was “nc (no competition at 10,000 ppb)”; in [9] it was “nc (no competition at 10,000 ppb)”; in assay [10] it was “nc (no competition at 10,000 ppb)”; in [11] it was 10.4 ± 2.0 ppb. For the same molecule, the “binding by Sol-129” value in assay [11] is “specifically bound; also recorded: Sol-129 was the only antibody capable of binding”.
As for `C[C@H]1CC[C@@H]2[C@@H](C)[C@H]3[C@H](C[C@H]4[C@@H]5CC=C6C[C@@H](O[C@@H]7O[C@H](CO)[C@H](O[C@@H]8O[C@@H](C)[C@H](O)[C@@H](O)[C@H]8O)[C@H](O)[C@@H]7O[C@@H]7O[C@@H](C)[C@@H](O)[C@@H](O)[C@H]7O)CC[C@]6(C)[C@H]5CC[C@]34C)N2C1` [α-chaconine], the IC50 in [1] is on record as 294 ± 34 ppb; in assay [2], 323 ± 125 ppb; in [3], 165 ± 58 ppb; in assay [4], 204 ± 19 ppb; in assay [5], 25 ± 2.1 ppb; in assay [6], 20.2 ppb. The IC50 entry is given as “nc (no competition at 10,000 ppb)” in assay [7]; “nc (no competition at 10,000 ppb)” in assay [8]; 82 ± 5.2 ppb in assay [9]; 54 ± 13 ppb in [10]; 2.8 ± 0.2 ppb in assay [11]. Also, in assay [11], the “relative affinity of Sol-129” value was “high affinity”.

For the origin of these results see patent publication US5614408A, “Monoclonal antibodies to potato, tomato, and eggplant glycoalkaloids and assays for the same” (priority 1995, dated 1997).
